Laboratory results as given in patent US8871778B2, “Substituted pyrimidine compounds and their use as SYK inhibitors” (Genosco, priority 2012, dated 2014).
Values belong to the compound of their own block, whether it stands above or below them.

Legend:
THP-1 cells [1] = test: SYK-independent TNF-α release assay (lipopolysaccharide stimulation), ELISA; format: cell-based, human; details: SYK-independent pathway; for IC50: LPS, 18 hours, read-out: TNF-α release inhibition, LPS stimulation (IC50 nM)
THP-1 cells [2] = test: SYK-dependent TNF-α release assay (IgG stimulation), ELISA; format: cell-based, human; details: for IC50: human IgG-coated plate, 18 hours, SYK-dependent pathway, read-out: TNF-α release inhibition, IgG stimulation (IC50 nM)
[3] = tested on: CIA mouse model (DBA/1J mice); test: Collagen-induced arthritis (CIA) mouse model, macroscopic scoring of paws; format: in vivo; details: for Inhibition in arthritis phenotype indicated by CIA compared with R788 (in words): mouse, in vivo; for CIA index (arthritic score of test group / vehicle group x 100): 30 mg/kg/day oral gavage once daily, DBA/1J mice
full-length human SYK = full-length human SYK (Homo sapiens (Human), UniProt P43405); test: Inhibition of enzymatic SYK kinase activity (LANCE Ulight-TK peptide, Eu-antibody, 665 nm emission); format: biochemical; details: ATP at Km (15 uM)
[4] = target: full-length human KDR (VEGFR2) (Homo sapiens (Human), UniProt P35968); test: Inhibition of enzymatic KDR kinase activity (LANCE Ulight-JAK1 peptide, Eu-antibody, 665 nm emission); format: biochemical; details: ATP at Km (15 uM)
Sequence of full-length human KDR (VEGFR2) (P35968 20-1356): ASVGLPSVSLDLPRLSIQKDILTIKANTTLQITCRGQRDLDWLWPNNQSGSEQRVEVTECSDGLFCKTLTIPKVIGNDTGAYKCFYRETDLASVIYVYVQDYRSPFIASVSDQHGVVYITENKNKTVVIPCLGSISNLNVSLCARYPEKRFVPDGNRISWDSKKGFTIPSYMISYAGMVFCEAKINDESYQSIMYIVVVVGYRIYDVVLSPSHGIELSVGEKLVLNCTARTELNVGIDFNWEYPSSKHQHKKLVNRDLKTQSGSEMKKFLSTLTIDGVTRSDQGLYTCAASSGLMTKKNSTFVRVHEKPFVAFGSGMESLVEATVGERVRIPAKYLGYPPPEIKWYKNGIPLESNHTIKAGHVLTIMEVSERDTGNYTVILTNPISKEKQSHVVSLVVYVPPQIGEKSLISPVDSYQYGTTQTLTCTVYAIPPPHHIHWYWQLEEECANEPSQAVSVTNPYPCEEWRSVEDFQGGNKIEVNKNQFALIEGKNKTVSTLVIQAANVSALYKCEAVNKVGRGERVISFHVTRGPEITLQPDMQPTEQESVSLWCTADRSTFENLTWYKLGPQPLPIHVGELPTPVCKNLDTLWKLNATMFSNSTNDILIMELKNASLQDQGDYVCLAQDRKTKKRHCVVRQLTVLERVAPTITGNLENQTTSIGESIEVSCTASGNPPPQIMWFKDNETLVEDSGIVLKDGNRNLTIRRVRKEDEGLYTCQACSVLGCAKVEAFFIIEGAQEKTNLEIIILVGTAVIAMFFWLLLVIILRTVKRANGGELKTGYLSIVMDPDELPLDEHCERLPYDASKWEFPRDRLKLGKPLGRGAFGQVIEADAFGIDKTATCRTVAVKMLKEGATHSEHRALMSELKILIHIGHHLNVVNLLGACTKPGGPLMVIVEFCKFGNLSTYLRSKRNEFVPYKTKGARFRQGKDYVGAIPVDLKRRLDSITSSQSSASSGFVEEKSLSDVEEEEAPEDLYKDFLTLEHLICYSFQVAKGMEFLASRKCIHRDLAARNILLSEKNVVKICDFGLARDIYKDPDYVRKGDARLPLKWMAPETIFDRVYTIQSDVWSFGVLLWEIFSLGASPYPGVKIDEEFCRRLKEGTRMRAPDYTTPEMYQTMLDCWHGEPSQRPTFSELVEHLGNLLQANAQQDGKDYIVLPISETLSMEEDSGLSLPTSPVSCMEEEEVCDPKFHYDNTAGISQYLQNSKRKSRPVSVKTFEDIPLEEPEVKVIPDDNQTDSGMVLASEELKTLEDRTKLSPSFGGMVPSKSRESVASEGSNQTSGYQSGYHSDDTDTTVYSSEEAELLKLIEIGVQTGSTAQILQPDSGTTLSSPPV

IC50 (THP-1 cells [1]): 431 nM
SMILES: C[C@@H]1C[C@H]2[C@@H]3CCC4=CC(=O)C=C[C@]4(C)[C@@]3(F)[C@@H](O)C[C@]2(C)[C@@]1(O)C(=O)CO [Dexamethasone]

SMILES: Cc1nn(-c2ccnc(Nc3ccc4c(c3)c(Cl)cn4C)n2)cc1CN1CC(O)C1 [Compound 144, 1-((1-(2-(3-Chloro-1-methyl-1H-indol-5-ylamino)pyrimidin-4-yl)-3-methyl-1H-pyrazol-4-yl)methyl)azetidin-3-ol]
Inhibition in SYK dependent TNF-α release assay compared with R406 (in words) (THP-1 cells [2]; IgG stimulated release): stronger inhibition than R406
IC50 (THP-1 cells [2]): 13 nM
IC50 (THP-1 cells [1]; Homo sapiens): 1140 nM
Inhibition in LPS stimulated TNF-α production (in words) (THP-1 cells [1]): no inhibition
Inhibition in arthritis phenotype indicated by CIA compared with R788 (in words) [3]: stronger inhibition

IC50 (full-length human SYK): 190 nM
SMILES: Cc1cn(-c2ccnc(Nc3ccc4c(ccn4C)c3)n2)cc1CN1CC(O)C1 [Compound 52, 1-((4-methyl-1-(2-(1-methyl-1H-indol-5-ylamino)pyrimidin-4-yl)-1H-pyrrol-3-yl)methyl)azetidin-3-ol]

IC50 (THP-1 cells [2]): 20 nM
IC50 (THP-1 cells [1]; Homo sapiens): > 1000 nM
SMILES: Cc1nn(-c2ccnc(Nc3ccc4c(c3)c(C(=O)C(F)(F)F)cn4C)n2)cc1CN1CC(O)C1 [Compound 151, 2,2,2-Trifluoro-1-(5-(4-(4-((3-hydroxyazetidin-1-yl)methyl)-3-methyl-1H-pyrazol-1-yl)pyrimidin-2-ylamino)-1-methyl-1H-indol-3-yl)ethanone]

SMILES: COc1cc(Nc2ncc(F)c(Nc3ccc4c(n3)N(COP(=O)(O)O)C(=O)C(C)(C)O4)n2)cc(OC)c1OC [Compound R788]
CIA index (arthritic score of test group / vehicle group x 100) ([3]; day 6): 41.9 ± 7.5%
CIA index (arthritic score of test group / vehicle group x 100) ([3]; day 9): 49.6 ± 9.4%
CIA index (arthritic score of test group / vehicle group x 100) ([3]; day 12): 68.3 ± 8.6%
CIA index (arthritic score of test group / vehicle group x 100) ([3]; day 15): 74.1 ± 7.1%
CIA index (arthritic score of test group / vehicle group x 100) ([3]; day 18): 79.4 ± 10.7%
CIA index (arthritic score of test group / vehicle group x 100) ([3]; day 21): 80.1 ± 6.7%

SMILES: Cc1nn(-c2ccnc(Nc3ccc4c(c3)c(Cl)c(C)n4C)n2)cc1CN1CC[C@@H](O)C1 [Compound 189, (R)-1-((1-(2-(3-Chloro-1,2-dimethyl-1H-indol-5-ylamino)pyrimidin-4-yl)-3-methyl-1H-pyrazol-4-yl)methyl)pyrrolidin-3-ol]
IC50 (THP-1 cells [2]): 42 nM
IC50 (THP-1 cells [1]; Homo sapiens): 2800 nM

IC50 (THP-1 cells [2]): 171 nM
SMILES: COc1cc(Nc2ncc(F)c(Nc3ccc4c(n3)NC(=O)C(C)(C)O4)n2)cc(OC)c1OC [Compound R406, reference compound]

SMILES: Cc1nn(-c2ccnc(Nc3ccc4c(cnn4C)c3)n2)cc1CN1CC(O)C1 [Compound 160, 1-((3-Methyl-1-(2-(1-methyl-1H-indazol-5-ylamino)pyrimidin-4-yl)-1H-pyrazol-4-yl)methyl)azetidin-3-ol]
IC50 (THP-1 cells [2]): 91 nM
IC50 (THP-1 cells [1]; Homo sapiens): 934 nM

SMILES: Cc1nn(-c2ccnc(Nc3ccc4c(c3)c(Cl)c(C)n4C)n2)cc1CN1CC(O)C1 [Compound 141, 1-((1-(2-(3-chloro-1,2-dimethyl-1H-indol-5-ylamino)pyrimidin-4-yl)-3-methyl-1H-pyrazol-4-yl)methyl)azetidin-3-ol]
IC50 [4]: 192 nM
Inhibition in arthritis phenotype indicated by CIA compared with R788 (in words) [3]: stronger inhibition
